Test results reported in paper PMC5915280, “Improvement of kynurenine aminotransferase-II inhibitors guided by mimicking sulfate esters” (PLoS ONE, 2018).

Molecular target: T1, KAT-II (kynurenine aminotransferase-II) (Homo sapiens, UniProt Q8N5Z0)
T1 construct: gene AADAT; recombinant KAT-II with a hexa-histidine tag, expressed in E. coli Rosetta 2
Test: HPLC assay of kynurenic acid formation with purified recombinant enzyme
Format: biochemical

T1 sequence (Q8N5Z0 30-425): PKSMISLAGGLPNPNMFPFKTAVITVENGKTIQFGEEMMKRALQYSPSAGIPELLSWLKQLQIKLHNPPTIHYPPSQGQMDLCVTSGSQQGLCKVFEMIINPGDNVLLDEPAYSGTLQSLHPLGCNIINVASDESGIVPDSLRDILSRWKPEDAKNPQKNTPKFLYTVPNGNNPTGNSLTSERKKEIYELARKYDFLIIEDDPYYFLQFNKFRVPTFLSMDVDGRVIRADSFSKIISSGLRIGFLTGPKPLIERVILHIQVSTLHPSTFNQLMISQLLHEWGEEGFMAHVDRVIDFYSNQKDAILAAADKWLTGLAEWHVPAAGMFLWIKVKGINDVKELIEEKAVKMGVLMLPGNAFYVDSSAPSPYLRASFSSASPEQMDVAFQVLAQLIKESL

| IC50 | SMILES |
| --- | --- |
| 73.8 µM | NS(=O)(=O)c1ccc(N2C(=O)c3cc(Cl)c(Cl)cc3C2=O)cc1 [JN-01, 4-(5,6-dichloro-1,3-dioxo-1,3-dihydro-2H-isoindol-2-yl)benzenesulfonamide] |
| 113 µM | NS(=O)(=O)c1ccc(CCN2C(=O)c3cc(Cl)c(Cl)cc3C2=O)cc1 [JN-02, 4-(5,6-dichloro-1,3-dioxo-1,3-dihydro-2H-isoindol-2-yl)ethyl benzenesulfonamide] |
